Experimental data from PMC10591846 (Cell reports, 2023).

Legend:
KLHDC10 = assay: In vitro peptide binding to KLHDC10; settings: Figure S12
Pirh2 = target: T1, Pirh2 (Homo sapiens, UniProt Q96PM5); assay: In vitro peptide binding to Pirh2; settings: Figure S12
T1 sequence (Q96PM5 1-261): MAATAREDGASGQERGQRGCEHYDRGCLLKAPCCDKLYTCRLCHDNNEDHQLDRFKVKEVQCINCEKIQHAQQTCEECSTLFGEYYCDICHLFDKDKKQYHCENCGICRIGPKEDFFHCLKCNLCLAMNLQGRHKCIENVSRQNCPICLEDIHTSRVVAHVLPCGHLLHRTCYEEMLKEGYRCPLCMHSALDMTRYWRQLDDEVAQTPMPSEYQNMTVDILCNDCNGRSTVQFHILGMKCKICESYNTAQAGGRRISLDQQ

Sequence: KHKLEQLRNSCA
- binding to KLHDC10 in vitro (KLHDC10): did not bind
- binding to Pirh2 in vitro (Pirh2): did not bind
